The text below walks through data of US20260151360A1, “ENDOXIFEN COMPOSITIONS AND METHODS OF USE THEREOF AND SYNTHESIS THEREOF” (Atossa Therapeutics, Inc., priority 2023, published 2026).

Like-named read-outs stand apart in the source and are kept apart here.

The nature of data set [1]: Plasma pharmacokinetics of endoxifen after administration of the compositions. Particulars: for AUC(0-t): read-out: mean AUC24hr; for half-life: endoxifen released from a composition disclosed herein. It counts as in vivo.
Data set [2] is described as follows: (Z)-Endoxifen solubility in dissolution media (pH 6.8 buffer with and without Polysorbate 80). It is filed as physicochemical. As for the experimental part: This example describes development of a dissolution assay to measure dissolution of endoxifen formulations. […] Polysorbate 80 (PS80), a nonionic surfactant, was added in varying concentrations to improve solubility and mimic an intestinal environment. Surfactants, such as polysorbate 80, create micelles in the medium that mimic the bile acid aggregates in the small intestine. These micelles facilitate the diffusion and transport of product into the medium.

The conditions of data set [3]: cited from earlier work.

Turning to `CC/C(=C(\c1ccc(O)cc1)c1ccc(OCCNC)cc1)c1ccccc1` [(Z)-endoxifen], the AUC(0-t) lay within 150 to 600 ng·h/mL in data set [1] (human, plasma, Day 1 of initial (first) dose, composition comprising 1 mg to 4 mg of (Z)-endoxifen) and 400 to 2500 ng·h/mL in data set [1] (human, plasma, Day 21, compositions comprising 1 mg to 4 mg of (Z)-endoxifen). In data set [1] (human, plasma, dosing range of 1 mg to 4 mg of (Z)-endoxifen), the AUC(0-inf) was 400 to 6000 ng·h/mL.
Turning to `CC/C(=C(\c1ccc(O)cc1)c1ccc(OCCNC)cc1)c1ccccc1` [endoxifen, 4-hydroxy-N-desmethyl-tamoxifen], in data set [2], the “solubility as a function of pH” value is on record as “decreases as pH becomes less acidic”. The “day by which steady state plasma levels are achieved” value in data set [1] (daily administration of a composition) is at most 7 days. The half-life is 40 to 53 h in data set [1] (human, plasma, read-out: mean half-life) and 30 to 60 h in data set [1] (human, plasma, read-out: terminal elimination half-life).
For the compound `CC/C(=C(\c1ccccc1)c1ccc(OCCN(C)C)cc1)c1ccccc1` [tamoxifen, (Z)-2-[4-(1,2-diphenyl-1-butenyl)phenoxy]-N,N-dimethylethanamine], the Terminal elimination half-life in data set [3] (Jordan C. Steroids 2007) is 120 to 170 h. Moreover, the peak concentration time result in data set [3] (post-dose) is “approximately 5 hours”. Moreover, the “Reported therapeutic levels of plasma tamoxifen” value in data set [3] (subjects dosed with 20 mg of oral tamoxifen (Lyon et al. 2012)) is given as at least 30 nM.

What is called AUC(0-inf) is total exposure, with the tail of the curve extrapolated. Low readings indicate less exposure, high ones more exposure. Broadly, the half-life is how long it takes for the measured level to halve.
